{"source": "paper PMC9698483", "about": "“Berbamine Reduces Chloroquine-Induced Itch in Mice through Inhibition of MrgprX1” (International Journal of Molecular Sciences, 2022)", "key": {"[1]": {"test_system": "CQ-induced itch", "parameters": "method as in PMID 16510108, PMID 32536619, PMID 35066892", "conditions": "cited from earlier work"}, "[2]": {"test_system": "MrgprX1 or MrgprA3", "parameters": "method as in PMID 16510108, PMID 32536619", "conditions": "read-out: IC50 (potency as antagonist); cited from earlier work"}, "[3]": {"test_system": "histamine-induced itch", "parameters": "method as in PMID 16510108, PMID 32536619, PMID 35066892", "conditions": "cited from earlier work"}, "[4]": {"biological_target": "T1, PAR2 (Homo sapiens, UniProt P55085)", "T1 construct": "endogenous in cells; host or cells: HT29", "T1 sequence (P55085 26-397)": "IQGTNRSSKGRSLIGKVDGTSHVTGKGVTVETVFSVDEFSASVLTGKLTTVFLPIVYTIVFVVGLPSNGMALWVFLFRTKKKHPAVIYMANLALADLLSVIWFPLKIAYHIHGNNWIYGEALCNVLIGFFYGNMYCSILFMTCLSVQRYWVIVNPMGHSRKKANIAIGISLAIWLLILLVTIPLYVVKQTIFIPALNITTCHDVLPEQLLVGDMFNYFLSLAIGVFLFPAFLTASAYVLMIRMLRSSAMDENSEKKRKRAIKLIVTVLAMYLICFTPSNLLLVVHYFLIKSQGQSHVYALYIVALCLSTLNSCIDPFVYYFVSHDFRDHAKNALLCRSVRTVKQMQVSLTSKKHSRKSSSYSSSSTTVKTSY", "experiment": "PAR2-AP-induced activation of PAR2 in HT29 cells (calcium)", "assay_type": "cell-based", "conditions": "30 μM compound, 10 min prior to 30 μM PAR2-AP", "procedure": "(§1) To investigate the effect of berbamine on other pruritogenic GPCRs, we observed the effect of berbamine on histamine H1 receptor (H1R), histamine H4 receptor (H4R), MrgprC11, MrgprX4, PAR2, and TGR5.\n(§2) Figure 3 Effects of berbamine on the activity of other pruritogenic GPCRs: (A,B) Effect of berbamine on histamine 1 receptor (H1R) and histamine 4 receptor (H4R). H1R- and H4R-expressing HEK293T cells were pretreated with 30 μM BBM for 10 min prior to 100 μM histamine treatment. […] (C) Effect of berbamine on PAR2. HT29 cells were pretreated with BBM for 10 min prior to 30 μM PAR2-AP treatment. […] (D) Effect of berbamine on MrgprC11. MrgprC11-expressing HEK293T cells were pretreated with BBM for 10 min prior to 100 μM […] treatment. (E) Effect of berbamine on MrgprX4. MrgprX4-expressing HEK293T cells were pretreated with BBM for 10 min prior to 80 μM DCA treatment. (F) Effect of berbamine on TGR5. TGR5 activity was measured using a YFP fluorescence quenching assay. CHO-K1 cells coexpressing TGR5 and a halide sensor YFP were pretreated with BBM and 80 μM DCA for 10 min prior to I^- treatment. Results were summarized as means ± S.E. (n = 6). NTC, nontransfected cells.\n(§3) Intracellular calcium levels were measured using a Fluo-4 NW calcium assay kit (Invitrogen, Carlsbad, CA) as per the manufacturer’s protocol in HEK293T and HT29 cells. […]"}, "[5]": {"test_system": "ERK1/2 phosphorylation through MrgprX1", "experiment": "Immunoblot of ERK1/2 phosphorylation in HEK293T cells expressing MrgprX1", "assay_type": "cell-based, human", "conditions": "HEK-MrgprX1 cells"}, "[6]": {"test_system": "ERK1/2 phosphorylation through MrgprA3", "experiment": "Immunoblot of ERK1/2 phosphorylation in HEK293T cells expressing MrgprA3", "assay_type": "cell-based, mouse", "conditions": "HEK-MrgprA3 cells"}, "[7]": {"test_system": "CQ-resistant strain of P. falciparum", "parameters": "method as in doi:10.1002/ddr.430300405", "conditions": "in vitro, compound alone; read-out: IC50 antimalaria effect, CQ-resistant strain; cited from earlier work"}, "[8]": {"biological_target": "T2, MrgprX1 (Homo sapiens, UniProt Q96LB2)", "T2 construct": "expressed in transfected cells", "T2 sequence (Q96LB2 whole entry)": "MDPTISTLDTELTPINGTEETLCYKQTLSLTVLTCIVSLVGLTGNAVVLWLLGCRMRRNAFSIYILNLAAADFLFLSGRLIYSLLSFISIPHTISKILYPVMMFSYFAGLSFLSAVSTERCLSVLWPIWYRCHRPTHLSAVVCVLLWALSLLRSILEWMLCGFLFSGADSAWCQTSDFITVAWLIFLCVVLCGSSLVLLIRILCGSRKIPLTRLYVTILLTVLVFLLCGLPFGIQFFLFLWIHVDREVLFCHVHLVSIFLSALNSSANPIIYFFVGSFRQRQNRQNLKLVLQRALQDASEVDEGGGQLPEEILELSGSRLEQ", "experiment": "Intracellular calcium measurement (Fluo-4 NW) in HEK293T cells expressing MrgprX1", "assay_type": "cell-based", "procedure": "To identify novel antagonists of MrgprX1, a cell-based screening assay was established. […] Cells were treated with the indicated concentrations of CQ where the arrow indicates. (B) Summary of dose-response (mean ± S.E., n = 6). (C) Representative Fluo−4 fluorescence traces of MrgprX1 antagonist screening. Cells were treated with 30 μM of the test compounds for 10 min prior to treatment with 300 μM CQ.\nFigure 2 Effect of berbamine and closantel on CQ- and ionomycin-induced increases in intracellular calcium levels: (A,B) Intracellular calcium levels were measured using Fluo−4 NW in HEK293T cells expressing MrgprX1. The cells were pretreated with the indicated concentrations of berbamine (BBM) and closantel (CLS) for 10 min prior to treatment with 300 μM CQ. (C) Summary of dose-response (mean ± S.E., n = 6). […] The cells were pretreated with the indicated concentrations of BBM and CLS for 10 min before treatment with ionomycin. (F) Summary of dose–response (mean ± S.E., n = 6).\nIntracellular calcium levels were measured using a Fluo-4 NW calcium assay kit (Invitrogen, Carlsbad, CA) as per the manufacturer’s protocol in HEK293T and HT29 cells. Briefly, the cells were plated in a 96-well black-walled plate and incubated with 100 μL of assay buffer including Fluo-4 NW. […] Intracellular calcium increase was induced with the application of the indicated agonist. All modulators were dissolved in DMSO, and cells were treated with a final concentration of 1% DMSO."}, "[9]": {"biological_target": "T3, MrgprA3 (Mus musculus, UniProt Q91WW3)", "T3 construct": "expressed in transfected cells; host or cells: HEK293T", "T3 sequence (Q91WW3 1-302)": "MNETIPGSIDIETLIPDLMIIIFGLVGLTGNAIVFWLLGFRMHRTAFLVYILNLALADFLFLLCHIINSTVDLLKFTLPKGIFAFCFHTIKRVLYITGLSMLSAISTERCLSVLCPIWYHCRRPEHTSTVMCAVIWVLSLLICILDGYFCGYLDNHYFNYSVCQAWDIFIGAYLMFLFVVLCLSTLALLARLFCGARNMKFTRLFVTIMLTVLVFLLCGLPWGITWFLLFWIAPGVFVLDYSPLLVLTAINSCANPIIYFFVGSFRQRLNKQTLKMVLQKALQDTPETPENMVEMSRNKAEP", "experiment": "Intracellular calcium measurement in HEK293T cells expressing mouse MrgprA3", "assay_type": "cell-based", "conditions": "HEK293T cells overexpressing MrgprA3; read-out: EC50 of MrgprA3 activation", "procedure": "MRGPRA3 and MRGPRC11 are mouse orthologs of human MRGPRX1, and MrgprA3 is also activated by CQ, resulting in CQ-induced pruritus. To investigate the inhibitory effect of berbamine on MrgprA3, we established HEK293T cells overexpressing MrgprA3. […] We further investigated whether berbamine inhibited CQ-induced ERK1/2 phosphorylation in HEK-MrgprA3 cells. Strong and significant ERK1/2 phosphorylation was observed following CQ application, and ERK1/2 phosphorylation peaked 5 min after CQ treatment (Figure 6A,B).\nFigure 5 Effect of berbamine on CQ-induced activation of MrgprA3: (A) Intracellular calcium levels were measured in HEK293T cells expressing mouse MrgprA3. Cells were treated with indicated concentrations of CQ. (B) Summary of dose–response (mean ± S.E., n = 6). (C) Cells were pretreated with indicated concentrations of berbamine for 10 min prior to 300 μM CQ treatment. (D) Summary of dose-response (mean ± S.E., n = 6). (E) Representative traces of intracellular calcium responses to BAM8−22 in HEK293T cells expressing MrgprC11. […]\n(§4) Intracellular calcium levels were measured using a Fluo-4 NW calcium assay kit (Invitrogen, Carlsbad, CA) as per the manufacturer’s protocol in HEK293T and HT29 cells. […] After 1 h of incubation, Fluo-4 fluorescence was recorded with a FLUOstar Omega microplate reader equipped with syringe pumps and custom Fluo-4 excitation/emission filters (485/538 nm). […]"}, "[10]": {"biological_target": "T4, histamine H1 receptor (H1R) (Homo sapiens, UniProt P35367)", "T4 construct": "expressed in transfected cells; host or cells: HEK293T", "T4 sequence (P35367 whole entry, species assumed)": "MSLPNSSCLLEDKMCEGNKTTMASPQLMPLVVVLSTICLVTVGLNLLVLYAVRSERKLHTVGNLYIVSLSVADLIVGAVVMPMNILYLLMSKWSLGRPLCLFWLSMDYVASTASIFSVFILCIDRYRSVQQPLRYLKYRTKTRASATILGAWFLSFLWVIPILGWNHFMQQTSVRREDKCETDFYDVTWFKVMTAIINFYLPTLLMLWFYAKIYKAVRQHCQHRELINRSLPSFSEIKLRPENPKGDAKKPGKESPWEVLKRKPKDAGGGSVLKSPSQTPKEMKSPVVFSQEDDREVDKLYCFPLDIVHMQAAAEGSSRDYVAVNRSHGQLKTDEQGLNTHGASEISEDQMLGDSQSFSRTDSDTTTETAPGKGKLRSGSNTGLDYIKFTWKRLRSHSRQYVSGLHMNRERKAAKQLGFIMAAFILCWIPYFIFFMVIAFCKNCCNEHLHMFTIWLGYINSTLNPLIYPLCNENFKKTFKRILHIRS", "experiment": "Histamine-induced activation of H1R in H1R-expressing HEK293T cells (calcium)", "assay_type": "cell-based", "conditions": "30 μM compound, 10 min prior to 100 μM histamine", "procedure": "as §1, §2, §3"}, "[11]": {"test_system": "HEK293T cells", "experiment": "Ionomycin-induced increase in intracellular calcium levels in HEK293T cells", "assay_type": "cell-based", "conditions": "10 μM ionomycin, 10 min pretreatment", "procedure": "To investigate whether berbamine and closantel affect calcium signaling pathways, we observed the effects of berbamine and closantel on CQ- and ionomycin-induced increases in intracellular calcium concentrations in HEK-MrgprX1 and HEK293T cells, respectively.\nFigure 2 Effect of berbamine and closantel on CQ- and ionomycin-induced increases in intracellular calcium levels: (A,B) Intracellular calcium levels were measured using Fluo−4 NW in HEK293T cells expressing MrgprX1. The cells were pretreated with the indicated concentrations of berbamine (BBM) and closantel (CLS) for 10 min prior to treatment with 300 μM CQ. (C) Summary of dose-response (mean ± S.E., n = 6). (D,E) Intracellular calcium levels were increased with 10 μM ionomycin in HEK239T cells. The cells were pretreated with the indicated concentrations of BBM and CLS for 10 min before treatment with ionomycin. (F) Summary of dose–response (mean ± S.E., n = 6).\nas §4"}}, "data": [{"molecule": "CC=CC(=O)N(CC)c1ccccc1C", "note": "(mixture of isomers) [crotamiton]", "values": [{"measurement": "effect on CQ-induced itch", "setting": "[1]", "result": "inhibits"}, {"measurement": "IC50", "setting": "[2]", "result": 326, "unit": "µM"}, {"measurement": "effect on histamine-induced itch", "setting": "[3]", "result": "inhibits"}]}, {"molecule": "O=C1O[C@H]2[C@@H]3OC(=O)c4cc(O)c(O)c(O)c4-c4c(O)c(O)c5oc(=O)c6c(c(O)c(O)c7oc(=O)c4c5c76)-c4c(cc(O)c(O)c4O)C(=O)OC[C@H]3OC(O)[C@@H]2OC(=O)c2cc(O)c(O)c(O)c2-c2c1cc(O)c(O)c2O", "note": "(mixture of isomers) [punicalagin, reference compound]", "values": [{"measurement": "effect on PAR2-AP-induced activation of PAR2", "setting": "[4]", "result": "significantly blocked"}]}, {"molecule": "CCN(CC)CCCC(C)Nc1ccnc2cc(Cl)ccc12", "note": "(stereo not shown) [CQ, Chloroquine]", "values": [{"measurement": "time of peak ERK1/2 phosphorylation after treatment", "setting": "[5]", "result": 10, "unit": "min"}, {"measurement": "time of peak ERK1/2 phosphorylation after treatment", "setting": "[6]", "result": 5, "unit": "min"}, {"measurement": "IC50", "setting": "[7]", "result": "0.203 ± 0.0707", "unit": "µM"}, {"measurement": "EC50", "setting": "[8]; HEK-MrgprX1 cells, Fluo-4, read-out: EC50 of increase in intracellular calcium levels (MrgprX1 activation)", "result": 96, "unit": "µM"}, {"measurement": "EC50", "setting": "[9]", "result": 234, "unit": "µM"}]}, {"molecule": "CN1CCC(=C2c3ccccc3CCn3c(C=O)cnc32)CC1", "note": "[alcaftadine, reference compound]", "values": [{"measurement": "effect on histamine-induced activation of H1R", "setting": "[10]", "result": "significantly blocked"}]}, {"molecule": "Cc1cc(C(C#N)c2ccc(Cl)cc2)c(Cl)cc1NC(=O)c1cc(I)cc(I)c1O", "note": "(stereo not shown) [closantel, reference compound]", "values": [{"measurement": "effect on ionomycin-induced increase in intracellular calcium levels", "setting": "[11]", "result": "inhibited it in a dose-dependent manner"}, {"measurement": "inhibition at 30 µM", "setting": "[8]; HEK-293T, read-out: inhibition of the CQ-induced activation of MrgprX1 (screening)", "result": "> 90", "unit": "%"}, {"measurement": "IC50", "setting": "[8]; pretreated 10 min prior to 300 μM CQ, read-out: IC50 of inhibition of CQ-induced MrgprX1 activation", "result": 3.6, "unit": "µM"}]}]}
